Laboratory results: PubChem BioAssay AID248 (DTP/NCI, 2004)
Inconclusive results and toxic doses are left out. Cut-off read from the data, not from the text of the source: active = T/C of 150% or more; inactive = T/C below 125%.

Test system: L1210 leukemia ip in BDF1 mice, survival T/C
Assay: NCI In Vivo Anticancer Drug Screen. Data for tumor model L1210 Leukemia (intraperitoneal) in B6D2F1 (BDF1) mice
Conditions: endpoint: mean survival time, higher = longer survival
Method in brief: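 Tumor cells were implanted, animals were treated, and survival was followed. The result divides the treated measurement by the vehicle-control measurement.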

[1] = dose: 400.0 mg/kg/injection, schedule: Q01DX009 (ip), vehicle: saline with Tween-80
[2] = dose: 100.0 mg/kg/injection, schedule: Q04DX003 (ip), vehicle: Klucel (hydroxypropylcellulose) (HPC)
[3] = dose: 200.0 mg/kg/injection, schedule: Q04DX003 (ip), vehicle: Klucel (hydroxypropylcellulose) (HPC)
[4] = dose: 400.0 mg/kg/injection, schedule: Q04DX003 (ip), vehicle: Klucel (hydroxypropylcellulose) (HPC)
[5] = dose: 100.0 mg/kg/injection, schedule: Q04DX003 (ip), vehicle: saline

Measured: T/C

NC(=O)N(CCc1ccccc1)N=O
inactive: dose: 6.25 mg/kg/injection, schedule: Q01DX Z (ip), vehicle: carboxymethylcellulose (CMC) 98 % of control | dose: 12.5 mg/kg/injection, schedule: Q01DX Z (ip), vehicle: carboxymethylcellulose (CMC) 109 % of control | dose: 25.0 mg/kg/injection, schedule: Q01DX Z (ip), vehicle: carboxymethylcellulose (CMC) 98 % of control | dose: 50.0 mg/kg/injection, schedule: Q01DX Z (ip), vehicle: carboxymethylcellulose (CMC) 118 % of control | dose: 75.0 mg/kg/injection, schedule: Q01DX Z (ip), vehicle: carboxymethylcellulose (CMC) 103 % of control | dose: 100.0 mg/kg/injection, schedule: Q01DX Z (ip), vehicle: carboxymethylcellulose (CMC) 114 % of control | dose: 150.0 mg/kg/injection, schedule: Q01DX Z (ip), vehicle: carboxymethylcellulose (CMC) 120 % of control | dose: 200.0 mg/kg/injection, schedule: Q01DX Z (ip), vehicle: carboxymethylcellulose (CMC) 111 % of control

CCCCCCCCC1C(CCCCCCCC(=O)OC)SC(F)(F)C1(F)F (centres undefined)
inactive: dose: 100.0 mg/kg/injection, schedule: Q01DX009 (ip), vehicle: saline with Tween-80 95 % of control | dose: 200.0 mg/kg/injection, schedule: Q01DX009 (ip), vehicle: saline with Tween-80 93 % of control | [1] 102 % of control

O=C(Nc1ccc(F)cc1)C(Cl)(Cl)Cl
inactive: dose: 100.0 mg/kg/injection, schedule: Q04DX002 (ip), vehicle: Klucel (hydroxypropylcellulose) (HPC) 102 % of control | dose: 200.0 mg/kg/injection, schedule: Q04DX002 (ip), vehicle: Klucel (hydroxypropylcellulose) (HPC) 94 % of control | dose: 400.0 mg/kg/injection, schedule: Q04DX002 (ip), vehicle: Klucel (hydroxypropylcellulose) (HPC) 94 % of control

CCCCOP(=O)(OCCCC)C(c1ccccc1)(c1ccccc1)c1ccccc1
inactive: [2] 91 % of control | [3] 94 % of control | [4] 96 % of control

O=C(O)CCCC1CCCCc2ccccc21 (centres undefined)
inactive: dose: 100.0 mg/kg/injection, schedule: Q04DX003 (ip), vehicle: acetone 103 % of control | dose: 200.0 mg/kg/injection, schedule: Q04DX003 (ip), vehicle: acetone 100 % of control | dose: 400.0 mg/kg/injection, schedule: Q04DX003 (ip), vehicle: acetone 110 % of control

CCOC(=O)c1[nH]c(C)c(CCCC(=O)O)c1C
inactive: dose: 75.0 mg/kg/injection, schedule: Q01DX001 (ip), vehicle: acetone 102 % of control | dose: 150.0 mg/kg/injection, schedule: Q01DX001 (ip), vehicle: acetone 104 % of control

NC1CCC1N (centres undefined)
inactive: [5] 104 % of control | dose: 200.0 mg/kg/injection, schedule: Q04DX003 (ip), vehicle: saline 108 % of control | dose: 400.0 mg/kg/injection, schedule: Q04DX003 (ip), vehicle: saline 98 % of control

O=C(Nc1ccc(Nc2ccncc2)cc1)c1ccc(Nc2ccnc3ccc([N+](=O)[O-])cc23)cc1
inactive: dose: 100.0 mg/kg/injection, schedule: Q01DX009 (ip), vehicle: Klucel (hydroxypropylcellulose) (HPC) 92 % of control | [2] 101 % of control | dose: 200.0 mg/kg/injection, schedule: Q01DX009 (ip), vehicle: Klucel (hydroxypropylcellulose) (HPC) 109 % of control | [3] 97 % of control | dose: 400.0 mg/kg/injection, schedule: Q01DX009 (ip), vehicle: Klucel (hydroxypropylcellulose) (HPC) 95 % of control | [4] 108 % of control

ClC(Cl)(Cl)C(Cl)(Cl)OC(Cl)(Cl)C(Cl)(Cl)Cl
inactive: dose: 100.0 mg/kg/injection, schedule: Q01DX001 (ip), vehicle: Klucel (hydroxypropylcellulose) (HPC) 107 % of control | [2] 100 % of control | dose: 200.0 mg/kg/injection, schedule: Q01DX001 (ip), vehicle: Klucel (hydroxypropylcellulose) (HPC) 112 % of control | [3] 92 % of control | dose: 400.0 mg/kg/injection, schedule: Q01DX001 (ip), vehicle: Klucel (hydroxypropylcellulose) (HPC) 95 % of control | [4] 95 % of control

C=C1C=C(c2ccccc2)N(C(=O)c2ccccc2I)CCN1C(=O)c1ccccc1I
inactive: [2] 114 % of control | [3] 89 % of control | [4] 94 % of control

CC(=O)NC1=C(Nc2ccc(-c3ccc(NC4=C(NC(C)=O)C(=O)c5ccccc5C4=O)cc3)cc2)C(=O)c2ccccc2C1=O
inactive: dose: 3.12 mg/kg/injection, schedule: Q04DX003 (ip), vehicle: saline 96 % of control | dose: 4.5 mg/kg/injection, schedule: Q01DX009 (ip), vehicle: saline 101 % of control | dose: 6.25 mg/kg/injection, schedule: Q04DX003 (ip), vehicle: saline 98 % of control | dose: 9.0 mg/kg/injection, schedule: Q01DX009 (ip), vehicle: saline 101 % of control | dose: 12.5 mg/kg/injection, schedule: Q01DX001 (ip), vehicle: saline 95 % of control | dose: 12.5 mg/kg/injection, schedule: Q04DX003 (ip), vehicle: saline 98 % of control | dose: 18.0 mg/kg/injection, schedule: Q04DX003 (ip), vehicle: saline 87 % of control

NC(N)=N/N=C/c1cccc(O)c1
inactive: dose: 63.0 mg/kg/injection, schedule: Q01DX Z (ip), vehicle: saline 112 % of control | dose: 125.0 mg/kg/injection, schedule: Q01DX Z (ip), vehicle: saline 102 % of control

O=C1c2c(ccc3ccccc23)CCC1Br (centres undefined)
inactive: [2] 97 % of control | [3] 101 % of control | [4] 103 % of control

CCO/C=C1\SC(=S)N(c2cccc(OC)c2)C1=O
inactive: dose: 117.0 mg/kg/injection, schedule: Q01DX009 (ip), vehicle: saline with Tween-80 116 % of control | dose: 176.0 mg/kg/injection, schedule: Q01DX009 (ip), vehicle: saline with Tween-80 108 % of control | dose: 264.0 mg/kg/injection, schedule: Q01DX009 (ip), vehicle: saline with Tween-80 121 % of control | [1] 117 % of control

CC(C)=CCC/C(C)=C\CN=C1C=CC(=O)O1
inactive: dose: 25.0 mg/kg/injection, schedule: Q01DX009 (ip), vehicle: saline + alcohol 97 % of control | dose: 25.0 mg/kg/injection, schedule: Q04DX003 (ip), vehicle: other 107 % of control | dose: 50.0 mg/kg/injection, schedule: Q01DX009 (ip), vehicle: saline + alcohol 90 % of control | dose: 50.0 mg/kg/injection, schedule: Q04DX003 (ip), vehicle: other 107 % of control | dose: 100.0 mg/kg/injection, schedule: Q04DX003 (ip), vehicle: other 121 % of control | [5] 91 % of control

CCCCCCCCCCC1CCCCC1
inactive: dose: 50.0 mg/kg/injection, schedule: Q04DX002 (ip), vehicle: saline with Tween-80 91 % of control | dose: 100.0 mg/kg/injection, schedule: Q04DX002 (ip), vehicle: saline with Tween-80 91 % of control | dose: 200.0 mg/kg/injection, schedule: Q04DX002 (ip), vehicle: saline with Tween-80 98 % of control

O=[N+]([O-])c1ccc(C=Nc2ccc(C(c3ccccc3)(c3ccccc3)c3ccccc3)cc2)s1
inactive: [2] 95 % of control | [3] 97 % of control | [4] 93 % of control

Oc1ccc(-c2nnc(-c3ccccc3)nn2)cc1
inactive: dose: 100.0 mg/kg/injection, schedule: Q04DX003 (ip), vehicle: gum acacia 104 % of control | dose: 200.0 mg/kg/injection, schedule: Q04DX003 (ip), vehicle: gum acacia 95 % of control | dose: 400.0 mg/kg/injection, schedule: Q04DX003 (ip), vehicle: gum acacia 95 % of control

COc1ccc(C(=O)CC(c2ccccc2)N2CCCCC2)cc1OC (centres undefined)
inactive: dose: 100.0 mg/kg/injection, schedule: Q04DX003 (ip), vehicle: saline with Tween-80 100 % of control | dose: 200.0 mg/kg/injection, schedule: Q04DX003 (ip), vehicle: saline with Tween-80 108 % of control | dose: 400.0 mg/kg/injection, schedule: Q04DX003 (ip), vehicle: saline with Tween-80 105 % of control

CCOC(=O)C(C(=O)OCC)C1c2ccccc2-c2ccccc21
inactive: [2] 102 % of control | [3] 96 % of control | [4] 100 % of control

CCC1CCCCC1(O)CC (centres undefined)
inactive: dose: 100.0 mg/kg/injection, schedule: Q01DX009 (ip), vehicle: saline 96 % of control | dose: 200.0 mg/kg/injection, schedule: Q01DX009 (ip), vehicle: saline 98 % of control

CS(=O)(=O)O.[Cu+2]
inactive: dose: 5.0 mg/kg/injection, schedule: Q01DX001 (ip), vehicle: saline 93 % of control | dose: 10.0 mg/kg/injection, schedule: Q01DX001 (ip), vehicle: saline 96 % of control

Nc1ncnc2c1ncn2C1OC(CO)C(NC(=S)SCc2ccccc2)C1O (centres undefined)
inactive: dose: 75.0 mg/kg/injection, schedule: Q01DX001 (ip), vehicle: saline 101 % of control | dose: 150.0 mg/kg/injection, schedule: Q01DX001 (ip), vehicle: saline 87 % of control | dose: 300.0 mg/kg/injection, schedule: Q01DX001 (ip), vehicle: saline 101 % of control
